Structures can show the parent of a compound that is named as a salt. Where two headings read alike, the source gives them in different places.
Experiments:
[1] = test system: fibrin-induced microglia activation; experiment: Image-based assay of fibrin-induced microglia activation (HTS and dose response); format: cell-based, rat; conditions: for inhibition at 10 µM: Rattus norvegicus, Microglia, read-out: Fibrin % inhibition
[2] = test system: LPS-induced microglia activation; experiment: Image-based assay of LPS-induced microglia activation (HTS and dose response); format: cell-based, rat; conditions: for inhibition at 10 µM: Rattus norvegicus, Microglia, read-out: LPS % inhibition
[3] = test system: fibrin- and LPS-induced microglia activation; experiment: cells; format: cell-based, rat
[4] = test system: primary rat microglia;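 as to Fibrin % cell toxicity: share of dead cells sized under 150 µm2 at 10 µM in fibrin-stimulated microglia HTS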
[5] = test system: primary rat microglia; remark: listed apart in the source;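 as to Fibrin % cell toxicity: share of dead cells sized under 150 µm2 at 10 µM in fibrin-stimulated microglia HTS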
[6] = primary microglia HTS, fibrin stimulation, compounds at 10 μM
[7] = primary microglia HTS, LPS stimulation, compounds at 10 μM
[8] = quadrant by fibrin and LPS inhibition, HTS at 10 μM
[9] = primary HTS, 10 μM, fibrin-stimulated primary microglia
[10] = primary HTS, 10 μM, LPS-stimulated primary microglia

Row | Structure (SMILES) | Quadrant (FIG. 5b) [3, 8] | Quadrant (FIG. 5b) [3] | Fibrin % cell toxicity ([4]; rat) [%] | LPS % cell toxicity ([5]; rat) [%] | inhibition at 10 µM [1, 6] [%] | inhibition at 10 µM [2, 7] [%] | also measured
1 | Cc1c(C)c2c(c(C)c1O)CCC(C)(CCCC(C)CCCC(C)CCCC(C)C)O2 (stereo not drawn) [Alpha-tochopherol] | Q4 |  |  |  |  |  | Fibrin % inhibition [1, 6]: 18%; LPS % inhibition [2, 7]: 21%; Fibrin % cell toxicity [4]: 0%; LPS % cell toxicity [5]: 0%
2 | C=CCc1ccccc1OCC(O)CNC(C)C (centres unmarked) [Alprenolol Hydrochloride, Alprenolol] | Q4 |  |  |  |  |  | Fibrin % inhibition [1, 6]: 1%; LPS % inhibition [2, 7]: 13%; Fibrin % cell toxicity [4]: 0%; LPS % cell toxicity [5]: 1%
3 | O=C(O)CN1C(=O)c2cccc3cccc(c23)C1=O [Alrestatin] |  | Q4 | 1 | 0 |  |  | inhibition at 10 µM [1]: 11%; inhibition at 10 µM [2]: 12%
4 | NCCCNCCSP(=O)(O)O [Amifostine] | Q4 |  | 0 | 0 | -38 | 15 | 
5 | N=C(N)NC(=O)c1nc(Cl)c(N)nc1N [Amiloride] | Q4 |  | 1 | 0 | 20 | 7 | 
6 | NCCCCCC(=O)O [Aminocaproic Acid] |  | Q4 | 1 | 0 |  |  | inhibition at 10 µM [1]: 5%; inhibition at 10 µM [2]: 7%
7 | NCC(=O)CCC(=O)O [Aminolevulinic acid] | Q4 |  | 1 | 0 | -4 | 10 | 
8 | Cn1c(=O)c2[nH]cnc2n(C)c1=O [Aminophylline, Theophylline] |  | Q4 |  |  |  |  | Fibrin % inhibition ([1]; 10 µM): 35%; LPS % inhibition ([2]; 10 µM): 25%; Fibrin % cell toxicity [4]: 1%; LPS % cell toxicity [5]: 0%
9 | CN(C)CCC=C1c2ccccc2CCc2ccccc21 [Amitriptyline] |  | Q4 | 1 | 1 |  |  | inhibition at 10 µM [1]: 14%; inhibition at 10 µM [2]: 30%
10 | CCOC(=O)OC(C)OC1=C(C(=O)Nc2ccccn2)N(C)S(=O)(=O)c2ccccc21 (centres unmarked) [Ampiroxicam] | Q4 |  | 1 | 0 | -9 | 14 | 
11 | CC(C)CN(C[C@@H](O)[C@H](Cc1ccccc1)NC(=O)O[C@H]1CCOC1)S(=O)(=O)c1ccc(N)cc1 [Amprenavir] | Q4 |  | 1 | 0 | -10 | 6 | 
12 | CN(C)c1cnccn1.O=S(=O)(O)O [Ampyzine Sulfate] |  | Q4 |  |  |  |  | Fibrin % inhibition ([1]; 10 µM): −18%; LPS % inhibition ([2]; 10 µM): 11%; Fibrin % cell toxicity [4]: 0%; LPS % cell toxicity [5]: 1%
13 | COc1cc(NS(C)(=O)=O)ccc1Nc1c2ccccc2nc2ccccc12 [Amsacrine] |  |  | 3 | 54 |  |  | inhibition at 10 µM ([1]; primary microglia HTS, fibrin stimulation, increased cell size (>800 μm^2) as marker of activation): 70%; inhibition at 10 µM ([2]; 48 h, primary microglia HTS, LPS stimulation, increased cell size (>800 μm^2) as marker of activation): 120%; Quadrant (FIG. 5b) ([3]; quadrant by fibrin and LPS inhibition in HTS of 1907 compounds): Q2
14 | CC(C)(C#N)c1cc(Cn2cncn2)cc(C(C)(C)C#N)c1 [Anastrozole] | Q4 |  | 1 | 0 | 31 | 16 | 
15 | N=c1ccn2c(n1)O[C@H]1[C@H](O)[C@@H](CO)O[C@H]12 [Ancitabine Hydrochloride] | Q4 |  | 1 | 1 | -4 | 27 | 
16 | Cl.N=C(N)NCCC[C@H](N)C(=O)O [Arginine Hydrochloride] | Q4 |  | 0 | 2 | 9 | 42 | 
17 | CCCCCCCCCCCCCCCC(=O)OC[C@H](O)[C@H]1OC(=O)C(O)=C1O [Ascorbyl Palmitate] | Q4 |  | 1 | 0 | 38 | 20 | 
18 | Cn1cnc([N+](=O)[O-])c1Sc1ncnc2nc[nH]c12 [Azathioprine] |  | Q4 | 0 | 0 |  |  | inhibition at 10 µM [1]: -14%; inhibition at 10 µM [2]: 16%
19 | CC[C@H]1OC(=O)[C@H](C)[C@@H](O[C@H]2C[C@@](C)(OC)[C@@H](O)[C@H](C)O2)[C@H](C)[C@@H](O[C@@H]2O[C@H](C)C[C@H](N(C)C)[C@H]2O)[C@](C)(O)C[C@@H](C)CN(C)[C@H](C)[C@@H](O)[C@]1(C)O [Azithromycin] | Q4 |  | 0 | 0 | -16 | 11 | 
20 | NC(CO)C(=O)NNCc1ccc(O)c(O)c1O (centres unmarked) [Benserazide] | Q4 |  | 0 | 0 | -16 | 8 | 
21 | CCOC(=O)c1ccc(N)cc1 [Benzocaine] | Q4 |  | 1 | 0 | -24 | 7 | 
22 | O=C(O)c1ccccc1 [Benzoic Acid] |  | Q4 | 0 | 0 |  |  | inhibition at 10 µM [1]: -6%; inhibition at 10 µM [2]: 6%
23 | O=C(Nc1ccc(C(=O)O)c(O)c1)c1ccccc1 [Benzoylpas] |  | Q2 | 4 | 2 |  |  | inhibition at 10 µM [1]: 107%; inhibition at 10 µM ([2]; 48 h): 87%
24 | CN1[C@@H]2CC[C@H]1C[C@@H](OC(c1ccccc1)c1ccccc1)C2 [Benztropine] |  | Q4 | 1 | 0 |  |  | inhibition at 10 µM [1]: -7%; inhibition at 10 µM [2]: 30%
25 | O=C(OCc1ccccc1)c1ccccc1 [Benzyl Benzoate] |  |  | 1 | 1 |  |  | inhibition at 10 µM [1, 9]: 35%; inhibition at 10 µM [2, 10]: 32%; Quadrant (FIG. 5b) ([3]; primary HTS, 10 μM): Q4
26 | CC(C)COCC(CN(Cc1ccccc1)c1ccccc1)N1CCCC1 (centres unmarked) [Bepridil] |  |  | 1 | 0 |  |  | inhibition at 10 µM [1, 9]: 1%; inhibition at 10 µM [2, 10]: 15%; Quadrant (FIG. 5b) ([3]; primary HTS, 10 μM): Q4
27 | COc1ccc2cc3[n+](cc2c1OC)CCc1cc2c(cc1-3)OCO2 [Berberine] |  |  | 0 | 0 |  |  | inhibition at 10 µM [1, 9]: -62%; inhibition at 10 µM [2, 10]: 4%; Quadrant (FIG. 5b) ([3]; primary HTS, 10 μM): Q4
28 | Oc1ccc2ccccc2c1 [Beta-naphthol] |  | Q4 | 0 | 0 |  |  | inhibition at 10 µM [1]: -17%; inhibition at 10 µM [2]: 15%
